{"source": "patent US7524487B2", "about": "“Compositions and methods for modulating interleukin-10” (University of Maryland, priority 2005, dated 2009)", "key": {"IL-10 promoter [1]": {"tested_on": "IL-10 promoter", "assay": "ChIP of histone H3 phosphorylation at the IL-10 promoter in stimulated BMMφ", "format": "cell-based, mice", "experimental": "BMMφ were stimulated with medium (open bars), LPS (solid bars) or E-IgG+LPS (striped bars) for 15 minutes (A), or the indicated times (B) and ChIP assays were carried out as described in Materials and Methods. Immunoprecipitations utilized antibodies specific to phospho-H3 (left panel) or acetyl-H3 (right panel). A. conventional RT-PCR and B. real time PCR were carried out using IL-10 promoter or IL-12p40 promoter specific primers. For real time PCR, samples were normalized to input DNA controls.\nCells were pretreated with PD98059 (10 μM), SB203580 (1 μM) or medium for 30 min then stimulated with medium (open bar), IgG-OVA (dotted bar), LPS (solid bar), or both (striped bars) for 40 min. ChIP analysis was carried out using a phospho-H3 specific Ab. A. Conventional RT-PCR was carried out using IL-10 promoter or IL-12p40 promoter specific primers. B. Real time PCR analysis of samples obtained in A. Samples were normalized to input DNA controls.\n(§1) FIG. 22 is a graph showing Inhibition of histone modifications by blocking ERK. BMMφ were pre-treated with PD98059 (15 μM) (solid bars) or drug vehicle (open bars) for 1 hour and then stimulated with IC plus LPS (10 ng/mL). Cross-linked chromatin fragments were immunoprecipitated with antibody to phosphorylated histone H3 at Ser 10 or antibody to Sp1. The DNA was purified and analyzed for the presence of IL-10 promoter sequences corresponding to nucleosome −2 by QRT-PCR. The data were plotted graphically as the percentage change relative to drug vehicle (IC/LPS) at 30 min post-stimulation for histone H3 phosphorylation, and at 45 min post-stimulation for Sp1 recruitment. One representative from two independent experiments is presented.\nChromatin immunoprecipitation (ChIP). ChIPs were carried out using the ChIP Assay kit following the manufacturer's protocol (Upstate USA, Inc., Lake Placid, N.Y.). Briefly, 1×10^6 BMMφ were plated overnight in 6-well plates. Cells were stimulated as described in Figure Legends then fixed for 10 min at 37° C. in paraformaldehyde (1% final concentration). […]"}, "IL-10 promoter [2]": {"tested_on": "IL-10 promoter", "assay": "ChIP of Sp1 and STAT3 binding to the IL-10 promoter in situ in stimulated BMMφ", "format": "cell-based, mice", "experimental": "BMMφ were stimulated with medium (open bar), E-IgG (dotted bar), LPS (solid bar), or LPS+E-IgG (striped bar) for 40 min. Some cells were pretreated with PD98059 (10 μM). Immunoprecipitations were carried out using either Sp1 or STAT3 specific Abs. A. Conventional RT-PCR was carried out using primers which amplify the putative Sp1 or STAT3 binding sites of the IL-10 promoter respectively. B. Real time PCR analysis of samples obtained in A. Samples were normalized to input DNA controls.\nas §1\nChromatin immunoprecipitation (ChIP). ChIPs were carried out using the ChIP Assay kit following the manufacturer's protocol (Upstate USA, Inc., Lake Placid, N.Y.). […]"}}}
{"smiles": "COc1cccc(-c2cc(=O)c3ccccc3o2)c1N", "note": "[PD98059]", "values": [{"measurement": "histone H3 Ser 10 phosphorylation at IL-10 promoter nucleosome −2 (ChIP, QRT-PCR)", "setting": "IL-10 promoter [1]; BMMφ pre-treated with PD98059 15 μM for 1 hour, IC plus LPS 10 ng/mL, 30 min post-stimulation, relative to drug vehicle", "result": "substantial loss"}, {"measurement": "histone H3 phosphorylation at the IL-10 promoter induced by immune complex (ChIP)", "setting": "IL-10 promoter [1]; BMMφ pretreated 30 min with PD98059 10 μM or SB203580 1 μM, then IgG-OVA + LPS for 40 min", "result": "completely abrogated"}, {"measurement": "Sp1 recruitment to IL-10 promoter nucleosome −2 (ChIP, QRT-PCR)", "setting": "IL-10 promoter [2]; BMMφ pre-treated with PD98059 15 μM for 1 hour, IC plus LPS 10 ng/mL, 45 min post-stimulation, relative to drug vehicle", "result": "dramatically reduced"}, {"measurement": "Sp1 and STAT3 transcription factor binding to the IL-10 promoter in situ (ChIP)", "setting": "IL-10 promoter [2]; BMMφ pretreated with PD98059 10 μM, LPS + E-IgG for 40 min", "result": "reversed"}]}
